Values joined by “and” are separate entries in the source; they are usually repeats but may differ in a detail not shown here. Equal entries are not always repeated.
Experiments:
Assay in all cases: Competitive isoTOP-ABPP, cell lysates
Type in all cases: binding
MGMT C150 (P16455) = target: T1, MGMT C150 (P16455) (Homo sapiens, UniProt P16455); details: for isoTOP-ABPP reactivity ratio, P16455_C150: 500 μm, in-vitro_ramos
T1 sequence (P16455 1-207): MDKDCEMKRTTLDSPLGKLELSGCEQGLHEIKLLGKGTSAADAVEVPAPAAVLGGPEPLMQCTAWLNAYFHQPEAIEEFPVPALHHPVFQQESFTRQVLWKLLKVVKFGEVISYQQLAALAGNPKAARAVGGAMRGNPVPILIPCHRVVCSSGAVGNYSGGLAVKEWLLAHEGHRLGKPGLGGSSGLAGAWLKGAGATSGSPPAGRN

STAT3 C259 (P40763) = STAT3 C259 (P40763) (Homo sapiens, UniProt P40763); details: for isoTOP-ABPP reactivity ratio, P40763_C259: 500 μm, in-vitro_ramos; for isoTOP-ABPP ratio (reactivity profile), P40763_C259: 500 μm in-vitro ramos_231
XPO1 C34 (O14980) = XPO1 C34 (O14980) (Homo sapiens, UniProt O14980); details: for isoTOP-ABPP reactivity ratio, O14980_C34: 500 μm
PCK2 C306 (Q16822) = target: T2, PCK2 C306 (Q16822) (Homo sapiens, UniProt Q16822); details: for isoTOP-ABPP reactivity ratio, Q16822_C306: 500 μm
T2 sequence (Q16822 33-640): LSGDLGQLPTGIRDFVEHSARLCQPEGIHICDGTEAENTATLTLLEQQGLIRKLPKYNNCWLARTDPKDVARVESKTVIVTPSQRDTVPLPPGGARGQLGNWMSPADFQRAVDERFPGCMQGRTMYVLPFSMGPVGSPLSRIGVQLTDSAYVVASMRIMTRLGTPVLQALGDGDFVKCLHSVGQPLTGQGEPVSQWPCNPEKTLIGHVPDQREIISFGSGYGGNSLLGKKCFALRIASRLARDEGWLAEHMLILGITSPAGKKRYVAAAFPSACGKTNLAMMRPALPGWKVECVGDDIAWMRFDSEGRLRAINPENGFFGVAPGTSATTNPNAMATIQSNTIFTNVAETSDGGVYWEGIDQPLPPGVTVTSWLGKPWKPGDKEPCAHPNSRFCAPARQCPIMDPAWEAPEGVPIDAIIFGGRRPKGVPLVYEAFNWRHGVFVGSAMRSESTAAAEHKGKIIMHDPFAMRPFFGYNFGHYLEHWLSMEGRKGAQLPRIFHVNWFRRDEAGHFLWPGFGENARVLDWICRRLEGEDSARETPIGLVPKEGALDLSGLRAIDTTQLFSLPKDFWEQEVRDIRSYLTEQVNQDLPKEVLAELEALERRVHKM

PDIA6 C190 (Q15084) = target: T3, PDIA6 C190 (Q15084) (Homo sapiens, UniProt Q15084); details: for isoTOP-ABPP reactivity ratio, Q15084_C190: 500 μm
T3 sequence (Q15084 20-440): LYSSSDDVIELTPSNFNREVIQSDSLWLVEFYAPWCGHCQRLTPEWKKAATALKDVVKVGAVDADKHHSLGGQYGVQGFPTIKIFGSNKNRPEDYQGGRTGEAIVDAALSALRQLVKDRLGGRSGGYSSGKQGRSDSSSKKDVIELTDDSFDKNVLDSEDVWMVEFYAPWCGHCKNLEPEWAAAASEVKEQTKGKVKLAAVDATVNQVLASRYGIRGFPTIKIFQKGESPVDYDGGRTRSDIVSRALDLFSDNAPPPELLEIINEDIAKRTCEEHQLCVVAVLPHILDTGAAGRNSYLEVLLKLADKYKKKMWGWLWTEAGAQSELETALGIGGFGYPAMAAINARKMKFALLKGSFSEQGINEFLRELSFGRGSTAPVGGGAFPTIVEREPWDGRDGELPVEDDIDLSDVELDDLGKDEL

GSTP1 C48 (P09211) = GSTP1 C48 (P09211) (Homo sapiens, UniProt P09211); details: for isoTOP-ABPP reactivity ratio, P09211_C48: 500 μm
PRMT1 C109 (Q99873) = PRMT1 C109 (Q99873) (Homo sapiens, UniProt Q99873); details: for isoTOP-ABPP reactivity ratio, Q99873_C109: 500 μm
IDH1 C269 (O75874) = IDH1 C269 (O75874) (Homo sapiens, UniProt O75874)
IDH1 C269 (O75874), sequence (O75874 whole entry): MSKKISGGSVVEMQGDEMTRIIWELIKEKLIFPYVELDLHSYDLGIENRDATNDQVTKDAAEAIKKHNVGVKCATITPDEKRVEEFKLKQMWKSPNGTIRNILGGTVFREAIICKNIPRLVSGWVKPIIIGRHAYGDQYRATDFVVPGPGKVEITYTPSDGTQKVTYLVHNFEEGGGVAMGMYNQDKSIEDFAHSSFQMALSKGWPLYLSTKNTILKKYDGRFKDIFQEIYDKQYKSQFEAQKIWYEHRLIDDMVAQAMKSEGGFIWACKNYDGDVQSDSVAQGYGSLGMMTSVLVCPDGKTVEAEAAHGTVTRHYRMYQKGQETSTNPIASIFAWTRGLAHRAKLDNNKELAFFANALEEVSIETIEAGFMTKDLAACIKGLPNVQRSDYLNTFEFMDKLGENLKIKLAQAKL

GSTP1 C48 (P09211), sequence (P09211 whole entry): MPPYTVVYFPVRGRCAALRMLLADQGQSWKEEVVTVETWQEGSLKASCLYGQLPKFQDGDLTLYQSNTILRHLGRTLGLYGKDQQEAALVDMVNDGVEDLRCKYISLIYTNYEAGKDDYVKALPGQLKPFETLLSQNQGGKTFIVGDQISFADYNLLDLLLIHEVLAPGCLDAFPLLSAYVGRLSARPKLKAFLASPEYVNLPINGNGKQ
PRMT1 C109 (Q99873), sequence (Q99873 whole entry): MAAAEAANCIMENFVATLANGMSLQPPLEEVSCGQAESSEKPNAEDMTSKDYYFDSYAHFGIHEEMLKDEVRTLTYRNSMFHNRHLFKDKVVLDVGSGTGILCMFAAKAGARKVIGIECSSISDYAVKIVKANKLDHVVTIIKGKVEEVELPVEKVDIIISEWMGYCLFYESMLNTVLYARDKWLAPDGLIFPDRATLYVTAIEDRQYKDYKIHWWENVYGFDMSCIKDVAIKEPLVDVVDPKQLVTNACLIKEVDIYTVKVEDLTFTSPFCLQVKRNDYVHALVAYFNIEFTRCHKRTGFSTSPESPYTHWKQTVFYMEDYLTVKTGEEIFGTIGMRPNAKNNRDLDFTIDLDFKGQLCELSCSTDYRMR
STAT3 C259 (P40763), sequence (P40763 whole entry): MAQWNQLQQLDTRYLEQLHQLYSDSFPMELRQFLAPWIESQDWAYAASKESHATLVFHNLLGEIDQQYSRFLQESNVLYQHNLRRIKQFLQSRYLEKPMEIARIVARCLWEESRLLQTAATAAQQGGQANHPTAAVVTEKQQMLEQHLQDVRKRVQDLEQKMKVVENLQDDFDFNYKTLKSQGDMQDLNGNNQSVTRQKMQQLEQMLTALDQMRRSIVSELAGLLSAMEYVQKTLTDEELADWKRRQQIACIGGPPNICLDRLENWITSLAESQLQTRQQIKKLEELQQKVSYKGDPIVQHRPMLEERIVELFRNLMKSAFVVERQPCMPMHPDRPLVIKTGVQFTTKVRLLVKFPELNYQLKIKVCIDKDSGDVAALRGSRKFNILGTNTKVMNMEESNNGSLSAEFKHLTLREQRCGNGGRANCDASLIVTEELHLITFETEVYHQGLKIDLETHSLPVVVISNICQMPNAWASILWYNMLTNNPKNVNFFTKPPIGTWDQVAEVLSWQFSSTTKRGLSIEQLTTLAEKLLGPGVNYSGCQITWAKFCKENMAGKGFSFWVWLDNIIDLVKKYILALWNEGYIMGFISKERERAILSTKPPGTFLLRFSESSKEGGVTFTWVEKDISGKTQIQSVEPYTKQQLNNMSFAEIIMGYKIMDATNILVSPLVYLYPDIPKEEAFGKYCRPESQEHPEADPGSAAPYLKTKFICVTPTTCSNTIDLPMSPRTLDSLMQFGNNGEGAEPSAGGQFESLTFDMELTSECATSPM
XPO1 C34 (O14980), sequence (O14980 whole entry): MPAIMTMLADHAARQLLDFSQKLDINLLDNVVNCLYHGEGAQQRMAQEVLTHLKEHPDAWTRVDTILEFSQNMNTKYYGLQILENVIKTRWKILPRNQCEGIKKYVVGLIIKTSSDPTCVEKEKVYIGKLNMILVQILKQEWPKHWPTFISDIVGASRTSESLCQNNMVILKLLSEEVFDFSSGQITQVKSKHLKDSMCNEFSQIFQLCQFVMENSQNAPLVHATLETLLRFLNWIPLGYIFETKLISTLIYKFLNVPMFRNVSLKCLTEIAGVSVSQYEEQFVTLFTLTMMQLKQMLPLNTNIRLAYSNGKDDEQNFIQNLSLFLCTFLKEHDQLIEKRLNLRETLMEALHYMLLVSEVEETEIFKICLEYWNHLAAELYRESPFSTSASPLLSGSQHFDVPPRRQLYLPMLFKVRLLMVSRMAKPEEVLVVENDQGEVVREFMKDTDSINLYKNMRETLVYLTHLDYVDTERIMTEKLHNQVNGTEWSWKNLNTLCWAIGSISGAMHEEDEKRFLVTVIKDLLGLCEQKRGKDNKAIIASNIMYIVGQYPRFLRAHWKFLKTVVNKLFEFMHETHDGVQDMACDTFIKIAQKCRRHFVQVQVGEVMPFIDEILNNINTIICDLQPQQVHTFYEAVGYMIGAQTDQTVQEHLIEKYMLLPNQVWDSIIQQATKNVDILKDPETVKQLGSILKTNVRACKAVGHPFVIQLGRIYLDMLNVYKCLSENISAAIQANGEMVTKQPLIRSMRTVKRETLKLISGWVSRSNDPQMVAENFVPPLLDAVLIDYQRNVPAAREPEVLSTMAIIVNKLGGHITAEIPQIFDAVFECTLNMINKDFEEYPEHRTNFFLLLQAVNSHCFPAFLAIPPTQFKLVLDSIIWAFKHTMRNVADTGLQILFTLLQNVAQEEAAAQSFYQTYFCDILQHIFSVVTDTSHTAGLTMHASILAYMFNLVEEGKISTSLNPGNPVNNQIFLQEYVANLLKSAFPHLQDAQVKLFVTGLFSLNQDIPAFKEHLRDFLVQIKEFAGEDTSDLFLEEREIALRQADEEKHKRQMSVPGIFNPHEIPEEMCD

SMILES: O=C(CCl)Nc1ccccc1C1CCCCCC1 [compound 35]
- isoTOP-ABPP reactivity ratio, P16455_C150 (MGMT C150 (P16455)): 1.3
- isoTOP-ABPP reactivity ratio, P40763_C259 (STAT3 C259 (P40763)): 1.1
- isoTOP-ABPP reactivity ratio, O14980_C34 (XPO1 C34 (O14980); in-vitro_ramos): 1.3
- isoTOP-ABPP reactivity ratio, O14980_C34 (XPO1 C34 (O14980); in-vitro_ramos_231): 0.8
- isoTOP-ABPP reactivity ratio, Q16822_C306 (PCK2 C306 (Q16822); in-vitro_ramos): 1.0
- isoTOP-ABPP reactivity ratio, Q16822_C306 (PCK2 C306 (Q16822); in-vitro_ramos_231): 0.9
- isoTOP-ABPP reactivity ratio, Q15084_C190 (PDIA6 C190 (Q15084); in-vitro_ramos_231): 0.9
- isoTOP-ABPP reactivity ratio, P09211_C48 (GSTP1 C48 (P09211); in-vitro_ramos): 1.3
- isoTOP-ABPP reactivity ratio, P09211_C48 (GSTP1 C48 (P09211); in-vitro_ramos_231): 0.7
- isoTOP-ABPP reactivity ratio, Q99873_C109 (PRMT1 C109 (Q99873); in-vitro_ramos): 1.0
- isoTOP-ABPP reactivity ratio, Q99873_C109 (PRMT1 C109 (Q99873); in-vitro_ramos_231): 0.8

SMILES: O=C(CCl)N1CCOCC1 [compound 22]
- isoTOP-ABPP ratio (reactivity profile), P16455_C150 (MGMT C150 (P16455); 500 μm in-vitro ramos): 2.9
- isoTOP-ABPP ratio (reactivity profile), P40763_C259 (STAT3 C259 (P40763)): 2.0
- isoTOP-ABPP ratio (reactivity profile), O14980_C34 (XPO1 C34 (O14980); 500 μm in-vitro ramos_231): 1.1
- isoTOP-ABPP ratio (reactivity profile), Q15084_C190 (PDIA6 C190 (Q15084); 500 μm in-vitro ramos): 4.2
- isoTOP-ABPP ratio (reactivity profile), Q15084_C190 (PDIA6 C190 (Q15084); 500 μm in-vitro ramos_231): 2.2
- isoTOP-ABPP ratio (reactivity profile), O75874_C269 (IDH1 C269 (O75874); 500 μm in-vitro ramos_231): 1.0
- isoTOP-ABPP ratio (reactivity profile), P09211_C48 (GSTP1 C48 (P09211); 500 μm in-vitro ramos): 0.7
- isoTOP-ABPP ratio (reactivity profile), P09211_C48 (GSTP1 C48 (P09211); 500 μm in-vitro ramos_231): 0.9
- isoTOP-ABPP ratio (reactivity profile), Q99873_C109 (PRMT1 C109 (Q99873); 500 μm in-vitro ramos): 1.0
- isoTOP-ABPP ratio (reactivity profile), Q99873_C109 (PRMT1 C109 (Q99873); 500 μm in-vitro ramos_231): 1.0

SMILES: CC(C)CCOCCNC(=O)CCl [compound 27]
- isoTOP-ABPP ratio (reactivity profile), P16455_C150 (MGMT C150 (P16455); 500 μm in-vitro ramos): 2.3
- isoTOP-ABPP ratio (reactivity profile), P16455_C150 (MGMT C150 (P16455); 500 μm in-vitro ramos_231): 1.0
- isoTOP-ABPP ratio (reactivity profile), P40763_C259 (STAT3 C259 (P40763)): 0.7
- isoTOP-ABPP ratio (reactivity profile), O14980_C34 (XPO1 C34 (O14980); 500 μm in-vitro ramos): 1.0
- isoTOP-ABPP ratio (reactivity profile), O14980_C34 (XPO1 C34 (O14980); 500 μm in-vitro ramos_231): 0.9 and 1.0
- isoTOP-ABPP ratio (reactivity profile), Q16822_C306 (PCK2 C306 (Q16822); 500 μm in-vitro ramos): 1.1
- isoTOP-ABPP ratio (reactivity profile), Q16822_C306 (PCK2 C306 (Q16822); 500 μm in-vitro ramos_231): 1.4 and 1.5
- isoTOP-ABPP ratio (reactivity profile), Q15084_C190 (PDIA6 C190 (Q15084); 500 μm in-vitro ramos): 1.1
- isoTOP-ABPP ratio (reactivity profile), Q15084_C190 (PDIA6 C190 (Q15084); 500 μm in-vitro ramos_231): 0.9
- isoTOP-ABPP ratio (reactivity profile), P09211_C48 (GSTP1 C48 (P09211); 500 μm in-vitro ramos): 1.0
- isoTOP-ABPP ratio (reactivity profile), P09211_C48 (GSTP1 C48 (P09211); 500 μm in-vitro ramos_231): 1.3 and 1.0
- isoTOP-ABPP ratio (reactivity profile), Q99873_C109 (PRMT1 C109 (Q99873); 500 μm in-vitro ramos): 1.0
- isoTOP-ABPP ratio (reactivity profile), Q99873_C109 (PRMT1 C109 (Q99873); 500 μm in-vitro ramos_231): 0.7 and 0.9

SMILES: CCN(CC)c1ccc(S(N)(=O)=O)cc1NC(=O)CCl [compound 30]
- isoTOP-ABPP reactivity ratio, P16455_C150 (MGMT C150 (P16455)): 5.1
- isoTOP-ABPP ratio (reactivity profile), O14980_C34 (XPO1 C34 (O14980); 500 μm in-vitro ramos): 0.7
- isoTOP-ABPP reactivity ratio, O14980_C34 (XPO1 C34 (O14980); in-vitro_ramos): 1.1
- isoTOP-ABPP ratio (reactivity profile), Q16822_C306 (PCK2 C306 (Q16822); 500 μm in-vitro ramos): 1.2
- isoTOP-ABPP reactivity ratio, Q16822_C306 (PCK2 C306 (Q16822); in-vitro_ramos): 1.1
- isoTOP-ABPP ratio (reactivity profile), Q15084_C190 (PDIA6 C190 (Q15084); 500 μm in-vitro ramos): 2.3
- isoTOP-ABPP ratio (reactivity profile), O75874_C269 (IDH1 C269 (O75874); 500 μm in-vitro ramos): 0.7
- isoTOP-ABPP ratio (reactivity profile), P09211_C48 (GSTP1 C48 (P09211); 500 μm in-vitro ramos): 1.4
- isoTOP-ABPP reactivity ratio, P09211_C48 (GSTP1 C48 (P09211); in-vitro_ramos): 1.2
- isoTOP-ABPP ratio (reactivity profile), Q99873_C109 (PRMT1 C109 (Q99873); 500 μm in-vitro ramos): 1.1
- isoTOP-ABPP reactivity ratio, Q99873_C109 (PRMT1 C109 (Q99873); in-vitro_ramos): 1.8

SMILES: C=CC(=O)N1CCC(c2noc3ccc(F)cc23)CC1 [compound 37]
- isoTOP-ABPP reactivity ratio, P16455_C150 (MGMT C150 (P16455)): 1.0
- isoTOP-ABPP reactivity ratio, P40763_C259 (STAT3 C259 (P40763)): 0.9
- isoTOP-ABPP reactivity ratio, O14980_C34 (XPO1 C34 (O14980); in-vitro_ramos): 0.9
- isoTOP-ABPP reactivity ratio, Q16822_C306 (PCK2 C306 (Q16822); in-vitro_ramos): 1.0
- isoTOP-ABPP reactivity ratio, Q15084_C190 (PDIA6 C190 (Q15084); in-vitro_ramos): 1.1
- isoTOP-ABPP reactivity ratio, P09211_C48 (GSTP1 C48 (P09211); in-vitro_ramos): 1.2
- isoTOP-ABPP reactivity ratio, Q99873_C109 (PRMT1 C109 (Q99873); in-vitro_ramos): 1.0
